Assay results published in patent US20190210969A1, “INTRAESOPHAGEAL ADMINISTRATION OF TARGETED NITROXIDE AGENTS FOR PROTECTION AGAINST IONIZING IRRADIATION-INDUCED ESOPHAGITIS” (University of Pittsburgh - Of the Commonwealth System of …, priority 2010, published 2019).

What was measured:
[1] = test system: 32D cl 3 mouse hematopoietic progenitor cell line; experiment: Irradiation survival curves of 32D cl 3 cells (colony assay); type: cell-based; conditions: for ñ (shoulder on the survival curve): 0 to 8 Gy
Description: Groups of 15 mice received intraperitoneal injection of 10 mg. per kilogram of each indicated GS-nitroxide compound or carrier (Cremphora plus alcohol at 1 to 1 ratio, then diluted 1 to 10 in distilled water). Mice received 10 mg per kilogram intra-peritoneal injection 24 hours prior to total body irradiation. Control mice received radiation alone. […] (P=0.0005) FIG. 6 is a graph showing that GS-nitroxide JP4-039 is an effective hematopoietic cell radiation mitigator when delivered 24 hr after irradiation. Irradiation survival curves were performed on cells from the 32D cl 3 mouse hematopoietic progenitor cell line, incubated in 10 μM JP4-039 for 1 hour before irradiation, or plated in methylcellulose containing 10 μM […] after irradiation. Cells were irradiated from 0 to 8 Gy, plated in 0.8% methylcellulose containing media, and incubated for 7 days at 37° C. Colonies of greater than 50 cells were counted and data analyzed by linear quadratic and single-hit, multi-target models.

[2] = test system: KM101 human marrow stromal cells; experiment: Irradiation survival of KM101 marrow stromal cells (colony assay); type: cell-based; conditions: for n (shoulder): 0 to 6 Gy
Description: FIG. 7 is a graph showing that JP4-039 is an effective mitigator of irradiation damage to KM101 human marrow stromal cells. KM101 cells were incubated in media alone or in JP4-039 ([…]) for one hour before irradiation or 24 hours after irradiation. The cells were irradiated to doses ranging from 0 to 6 Gy and plated in 4 well plates. Seven days later the cells were stained with crystal violet and colonies of greater than 50 cells counted. Cells incubated in JP4-039 either before or after irradiation were more radioresistant as shown by an increased shoulder of n=2.3±0.2 or 2.2±0.2, respectively compared to n of 1.1±0.1 for the KM101 cells (p=0.0309 or 0.0386, respectively).

[3] = Clearance of intravenously injected JP4-039 measured by EPR; type: in vivo, mouse; set-up: dose or concentration left out as unconfirmed
Source text: FIGS. 13A-13B. Pharmacokinetics of clearance of JP4-039 intravenously injected into C57BL/6JHNsd mice in (FIG. 13A) plasma and (FIG. 13B) lung. […] Serum samples were collected and assayed. Each symbol represents an individual mouse. The methods for assay of nitroxide by EPR have been published previously (Borisenko G G, et al. J Am Chem Soc 4(30): 9221-9232, 2004 and Jiang J, et al. A mitochondria-targeted triphenylphosphonium-conjugated nitroxide functions as a radioprotector/mitigator. Radiat Res 172(6): 706-717, 2009).
Measurement of JP4-039 nitroxide in serum and in tissues by electron paramagnetic resonance. Electron paramagnetic resonance (EPR) spectra of nitroxide radicals in cells or in mitochondrial fractions were recorded after mixing with acetonitrile (1:1 v/v) after 5 min incubation with 2 mM K3Fe(CN)6 using a JEOL-RE1XEPR spectrometer (JEOL, USA, Inc., Peabody, Mass., USA) under the following conditions: 3350 G center field, 25 G scan range, 0.79 G field modulation, 20 mW microwave power, 0.1 s time constant, 4 min scan time. Under these experimental conditions, nitroxides were not detectably oxidized by […] to EPR-silent oxoamminium cations. Mitochondria-enriched fractions were obtained by differential centrifugation. […] Partitioning efficiency was calculated as a percentage of the initial signal. […] After that, samples were centrifuged at 10,000 g for 5 min, and the pellets washed twice with the incubation buffer and analyzed by EPR as described previously (Borisenko G G, et al. Nitroxides scavenge myeloperoxidase-catayzed thiyl radicals in model systems and in cells. J Am Chem Soc 4(30): 9221-9232, 2004 and Jiang J, et al. A mitochondria-targeted triphenylphosphonium-conjugated nitroxide functions as a radioprotector/mitigator. Radiat Res 172(6): 706-717, 200938-39).
Intravenous JP4-039 systemic pharmacokinetics and intraesophageal formulation mediated delivery to esophagus. […] JP4-039 was cleared from plasma by 10 min, but was detected in lung (and intestine) for over 30 minutes.

[4] = test system: mice, 29 Gy upper body irradiation plus GFP+ male marrow; experiment: Survival after 29 Gy upper body irradiation with GFP+ marrow injection on day 5; type: in vivo, mouse; conditions: given before 29 Gy; GFP+ marrow i.v. day 5; p=0.0315 (MnSOD-PL), p=0.0462 (JP4-039/F15)
Source text: Bone marrow transplantation, esophageal excision and cell sorting. Five days after irradiation, the time shown to optimize marrow cell homing to the irradiated esophagus, mice received intravenous injection of 1.0×10^7 C57BL/6HNsd GFP+ male bone marrow cells prepared as single-cell suspension from donor male mice according to published methods (Niu Y, et al. Irradiated esophageal cells are protected from radiation-induced recombination by MnSOD gene therapy. Rad Res 173: 453-461, 2010 and Niu Y, et al. Intraesophageal MnSOD-plasmid liposome administration enhances engraftment and self-renewal capacity of bone marrow derived progenitors of esophageal squamous epithelium. Gene Therapy 15: 347-356, 2008). At serial time points after marrow transplantation, esophagus specimens were removed, and single cell suspensions prepared according to published methods (Id.). The esophagus cell suspensions were sorted for GFP+ cells. The number of GFP+ cells per 10^6 was calculated as described previously (Id.). (GFP+) cells were placed on slides, and stained for detection of donor cell markers (Id.).
Intraesophageal JP4-039/formulation improves survival through recovery of endogenous esophageal progenitor cells. […] Five groups of 15 mice each received 29 Gy to the upper body. One group received MnSOD-PL 24 hours prior to irradiation.

CC(C)C[C@@H](/C=C/CC(=O)NC1CC(C)(C)N([O])C(C)(C)C1)NC(=O)OC(C)(C)C [JP4-039, TEMPO-4-yl-(S,E)-5-(tert-butoxycarbonylamino)-7-methyloct-3-enamide]
ñ (shoulder on the survival curve) ([1]; 10 μM for 1 hour before irradiation, cells alone 1.29±0.13, p=0.0109): 5.25±0.84 | survival of 32D c13 cells ([1]; 10 μM for one hour, 0-8 Gy irradiation, preliminary data): increased survival | ñ (shoulder on the survival curve) ([1]; 10 μM in methylcellulose after irradiation, cells alone 1.29±0.13, p=0.0022): 4.55±0.47 | n (shoulder) ([2]; 24 hours after irradiation, KM101 alone 1.1±0.1, p=0.0386): 2.2±0.2 | Do ([2]; before or after irradiation vs media alone): no significant change | n (shoulder) ([2]; for one hour before irradiation, KM101 alone 1.1±0.1, p=0.0309): 2.3±0.2 | time detected in intestine [3]: over 30 minutes | time detected in lung [3]: over 30 minutes | time by which cleared from plasma ([3]; intravenous in 100 μl): ≤ 10 min | survival [4]: improved survival
